Patent US10577382B2, “Fused heterocyclic compound” (TAKEDA PHARMACEUTICAL COMPANY LIMITED, priority 2016, dated 2020)

Key:
CLK2 enzyme = biological target: T1, CLK2 enzyme (Homo sapiens, UniProt P49760); assay: Measurement of CLK2 inhibitory activity (LANCE time-resolved fluorescence, ULight-labeled MBP peptide); type: biochemical; conditions: compound 1 μM; ATP 1 mM; read-out: CLK2 activity inhibition ratio at compound concentration of 1 μM (ATP 1 mM)
T1 construct: purchased Thermo Fisher Scientific
Method: A test compound dissolved in DMSO was added to a reaction solution (50 mM HEPES (pH: 7.5), 10 mM MgCl2, 1 mM EGTA, 2 mM DTT, 0.01% Tween 20, 0.01% BSA) containing a CLK2 enzyme (Thermo Fisher Scientific) and an ULight-labeled MBP peptide (PerkinElmer), and the mixture was then reacted at room temperature for 10 minutes. An ATP solution was added to a final concentration of 1 mM to initiate an enzyme reaction, and the reaction was carried out at room temperature for 60 minutes. A europium-labeled anti-phosphorylated MBP antibody (PerkinElmer) and a LANCE Detection buffer (PerkinElmer) containing EDTA with a final concentration of 20 mM were added to stop the reaction, the mixture was left standing for 60 minutes, and the time-resolved fluorescence value (excitation 320 nm, and emission 615 nm and 665 nm) was measured by Envision (PerkinElmer). The inhibition ratio (%) of CLK2 by the test compound was calculated in accordance with the following expression. Inhibition ratio (%)=(1−(count of test compound−blank)÷(control−blank))×100
The count of the CLK2 enzyme reaction solution without addition of the compound was described as a control, and the count without addition of the compound and addition of the CLK2 enzyme was described as a blank. The concentration at which the inhibition ratio was 50% was defined as an IC50 value.

[1] = test system: MDM4 transcription product (MDM4 FL / MDM4 S); assay: In vitro MDM4 alternative splicing ratio in HCT116 cells (quantitative PCR); type: cell-based, human; conditions: 300 nM, 6 hours, PSI = MDM4 FL/(MDM4 FL + MDM4 S) x 100, Control (DMSO) 75.75
Method: 1000 μl (20,0000 cells/well) of a cell suspension of human colon adenocarcinoma cells HCT116 (purchased from ATCC) was seeded in a 12-well plate, and cultured at 37° C. for 1 day in a 5% CO2 gas incubator. The test compound solution was added to a final concentration of 300 nM, and the mixture was cultured for 6 hours. The plate was washed with PBS, the cells were then dissolved using RNeasy Mini Kit (QIAGEN), and RNA was extracted. Using cDNA after reverse transcription reaction, the number of copies of the MDM4 transcription product containing exon 6 (MDM4 FL) and the MDM4 transcription product in which exon 6 was skipped (MDM4 S) was measured by quantitative PCR. Primers with the following sequences were used for the measurement.
Primers with the following sequences were used for the measurement.
The following oligos were used for preparing a calibration curve.
A change in MDM4 alternative splicing ratio (PSI) is calculated in accordance with the following expression, and changes caused by the test compound are shown in Table 8. PSI=(number of copies of MDM4 FL÷(number of copies of MDM4 FL+number of copies of MDM4 S))×100

[2] = test system: tumor derived from a myelogenous leukemia patient having a mutation in the SF3B1 gene; assay: Antitumor action on tumor-bearing model derived from patient with acute myeloid leukemia having SF3B1 gene mutation; type: in vivo; conditions: 50 mg/kg orally twice a day on 2 days per week for 2 weeks; NOG female mice; tumor volume
Method: A tumor derived from a myelogenous leukemia patient having a mutation in the SF3B1 gene was subcutaneously transplanted into mice to establish a clinical tumor model capable of undergoing in vivo passage. A fragment of the tumor was subcutaneously transplanted into a six-week-old NOG female mice (CLEA Japan, Inc.) with a trocar, the tumor diameter of the developed tumor was measured 52 days after the transplantation, and the tumor volume was calculated in accordance with the following expression. Tumor volume=long diameter×short diameter×short diameter×(½)
Individuals with a tumor developed to a tumor volume of about 200 mm^3 were selected, and six mice per group were used for the experiment. A 0.5% methylcellulose solution (Wako Pure Chemical Industries, Ltd.) suspension of the test compound was orally administered at a dose of 50 mg/kg (10 mL/kg) twice a day on 2 days per week for 2 weeks. The tumor volume was chronologically measured on the day before the start of administration and every 3 to 4 days, the tumor diameter was finally measured on the day after completion of administration for 14 days, and the tumor volume was calculated.
The tumor growth in the test compound administration group with respect to the control administration group was calculated as a T/C value in accordance with the following expression. […]

T1 sequence (P49760 whole entry): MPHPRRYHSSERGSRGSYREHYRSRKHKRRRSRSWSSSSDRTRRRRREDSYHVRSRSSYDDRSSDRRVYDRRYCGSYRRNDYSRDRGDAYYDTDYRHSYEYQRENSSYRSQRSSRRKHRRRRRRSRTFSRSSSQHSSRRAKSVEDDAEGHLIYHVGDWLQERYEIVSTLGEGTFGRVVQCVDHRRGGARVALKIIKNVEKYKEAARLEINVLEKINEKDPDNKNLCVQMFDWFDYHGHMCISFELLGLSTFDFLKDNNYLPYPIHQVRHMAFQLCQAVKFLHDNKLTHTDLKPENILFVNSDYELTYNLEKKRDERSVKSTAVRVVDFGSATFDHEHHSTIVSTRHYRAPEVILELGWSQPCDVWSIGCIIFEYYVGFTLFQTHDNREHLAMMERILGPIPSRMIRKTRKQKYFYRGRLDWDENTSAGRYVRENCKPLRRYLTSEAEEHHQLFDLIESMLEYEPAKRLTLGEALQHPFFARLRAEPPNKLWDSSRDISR

inhibition at 1 µM (CLK2 enzyme): 100%
Compound: COc1ncnn2ccc(-c3cnc4nc(C)n(Cc5nnc([C@@H](C)F)o5)c4c3)c12 [Example 286, 1-((5-((1R)-1-fluoroethyl)-1,3,4-oxadiazol-2-yl)methyl)-6-(4-methoxypyrrolo[2,1-f][1,2,4]triazin-5-yl)-2-methyl-1H-imidazo[4,5-b]pyridine]
PSI (MDM4 alternative splicing ratio) [1]: 45.81 | T/C (%) [2]: −30.4%
